In US8853213B2, “Bicyclic compound for modulating G protein-coupled receptors” (Hanmi Pharm. Co., Ltd, priority 2011, dated 2014):

target: T1, GPR119 (Homo sapiens, UniProt Q8TDV5); assay: Controlling Effect of GPR119 in CRE-bla CHO-K1 Cells (EC50); format: cell-based; details: GPR119 CRE-bla CHO-K1 cell line, 5 hr incubation with compound, β-lactamase LiveBLAzer-FRET B/G readout; read-out: controlling effect against GPR119 in CRE-bla CHO-K1 cell line (EC50)
T1 construct: host or cells: CHO-K1 (CRE-bla reporter, doxycycline-induced)
T1 sequence (Q8TDV5 1-335): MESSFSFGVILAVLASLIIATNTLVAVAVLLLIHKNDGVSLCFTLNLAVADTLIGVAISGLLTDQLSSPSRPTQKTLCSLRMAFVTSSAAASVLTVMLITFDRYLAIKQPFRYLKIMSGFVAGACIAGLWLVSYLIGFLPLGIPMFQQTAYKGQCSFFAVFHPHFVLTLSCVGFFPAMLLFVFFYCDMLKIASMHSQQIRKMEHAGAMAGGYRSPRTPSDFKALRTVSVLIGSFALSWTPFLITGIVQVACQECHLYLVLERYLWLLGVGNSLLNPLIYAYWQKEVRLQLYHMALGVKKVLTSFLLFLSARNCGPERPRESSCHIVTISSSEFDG
Procedure: Controlling Effect of GPR119 in CRE-bla CHO-K1 Cells (EC50)
The day before the experiment, GPR119 CRE-bla CHO-K1 cell line purchased from Invitrogen was seeded in a 96 black well plate in an amount of 80 μl at a density of 5×10^4 cells. After the seeding, 10 μl of doxycycline in a concentration of 1 μg/ml was added to each well and incubated in an incubator at 37° C. under 5% CO2 for about 16 to 20 hr.
The day of experiment, sample compounds were performed a 10-fold serial dilution with a culture medium at various concentrations of 1 uM to […]. Considering that the culture medium used in the seeding and doxycycline are together applied, the sample compounds were diluted to a 5-fold dilution of the planned concentration. 20 μl of the compound diluted with the culture medium was added to each well and incubated in the incubator for 5 hr. The compound-untreated group was added with 20 μl of 0.5% dimethyl sulfoxide (DMSO) diluted with the culture medium. After 5 hr from the incubation, substrate mixture of a 6-fold concentration were prepared; 6 μl of 1 mM LiveBLAzer™-FRET B/G(CCF4-AM) substrate, 60 μl of solution B, 904 μl of solution C and 30 μl of solution D. 12 μl of the substrate mixture was added to each well and allowed to be kept at room temperature for 2 hr with shading the light. Fluorescence intensity value of blue channel and green channel was determined by a fluorescence microplate reader at 409 nm/460 nm and 409 nm/[…] (excitation/emission), respectively. In order to confirm the controlling effect of the inventive compounds against GPR119, EC50 (half maximal effective concentration) was determined based on the determined values. EC50, the concentration at which 50% activity of β-lactamase, was determined according to the following Equation: Equation=[(Ti−Tz)/(C−Tz)]×100
[Wherein, Ti: Cell density of the compound-treated group; Tz: Cell density of the negative control group; and C: Cell density of the positive control group]

Row | Compound | EC50 [nM]
1 | 7-(2-fluoro-4-4-[1-(5-trifluoromethylpyrimidin-2-yl)-piperidin-4-yloxy]-thieno[3,2-d]pyrimidine [Example 82] | < 100
2 | CS(=O)(=O)c1ccc(-c2csc3c(N4CCC(c5nc(C6CC6)no5)CC4)ncnc23)cc1 [Example 1, 3-cyclopropyl-5-(1-(7-(4-methanesulfonyl-phenyl)thieno[3,2-d]pyrimidin-4-yl)piperidin-4-yl)-1,2,4-oxadiazole] | < 100
3 | CS(=O)(=O)c1ccc(-c2csc3c(N4CCCC4)ncnc23)cc1 [Example 2, 7-(4-methanesulfonyl-phenyl)-4-(pyrrolidin-1-yl)thieno[3,2-d]pyrimidine] | > 1000
4 | CS(=O)(=O)c1ccc(-c2csc3c(N4CCCCC4)ncnc23)cc1 [Example 3, 7-(4-methanesulfonyl-phenyl)-4-(piperidin-1-yl)thieno[3,2-d]pyrimidine] | > 1000
5 | CCc1noc(C2CCN(c3ncnc4c(-c5ccc(S(C)(=O)=O)cc5)csc34)CC2)n1 [Example 4, 3-ethyl-5-(1-(7-(4-methanesulfonyl-phenyl)thieno[3,2-d]pyrimidin-4-yl)piperidin-4-yl)-1,2,4-oxadiazole] | 100 to 1000
6 | CC(C)c1noc(C2CCN(c3ncnc4c(-c5ccc(S(C)(=O)=O)cc5)csc34)CC2)n1 [Example 5, 3-isopropyl-5-(1-(7-(4-methanesulfonyl-phenyl)thieno[3,2-d]pyrimidin-4-yl)piperidin-4-yl)-1,2,4-oxadiazole] | < 100
7 | CS(=O)(=O)c1ccc(-c2csc3c(N4CCC(c5nc(C6CCCC6)no5)CC4)ncnc23)cc1 [Example 6, 3-cyclopentyl-5-(1-(7-(4-methanesulfonyl-phenyl)thieno[3,2-d]pyrimidin-4-yl)piperidin-4-yl)-1,2,4-oxadiazole] | < 100
8 | CS(=O)(=O)c1ccc(-c2csc3c(N4CCC(c5nc(C6CCCCC6)no5)CC4)ncnc23)cc1 [Example 7, 3-cyclohexyl-5-(1-(7-(4-methanesulfonyl-phenyl)thieno[3,2-d]pyrimidin-4-yl)piperidin-4-yl)-1,2,4-oxadiazole] | < 100
9 | CS(=O)(=O)c1ccc(-c2csc3c(N4CCC(c5nc(-c6ccccc6)no5)CC4)ncnc23)cc1 [Example 8, 5-(1-(7-(4-(methanesulfonylphenyl)phenyl)thieno[3,2-d]pyrimidin-4-yl)piperidin-4-yl)-3-phenyl-1,2,4-oxadiazole] | 100 to 1000
10 | CC(C)c1noc(N2CCN(c3ncnc4c(-c5ccc(S(C)(=O)=O)cc5)csc34)CC2)n1 [Example 9, 3-isopropyl-5-(4-(7-(4-methanesulfonyl-phenyl)thieno[3,2-d]pyrimidin-4-yl)piperazin-1-yl)-1,2,4-oxadiazole] | 100 to 1000
11 | CC(C)(C)OC(=O)N1CCN(c2ncnc3c(-c4ccc(S(C)(=O)=O)cc4)csc23)CC1 [Example 10, tert-butyl 4-(7-(4-methanesulfonyl-phenyl)thieno[3,2-d]pyrimidin-4-yl)piperazine-1-carboxylate] | 100 to 1000
12 | CCc1cnc(N2CCN(c3ncnc4c(-c5ccc(S(C)(=O)=O)cc5)csc34)CC2)nc1 [Example 11, 4-(4-(5-ethylpyrimidin-2-yl)piperazin-1-yl)-7-(4-methanesulfonyl-phenyl)thieno[3,2-d]pyrimidine] | 100 to 1000
13 | CC(C)c1noc(C2CCN(c3ncnc4c(-c5ccc(S(C)(=O)=O)cc5F)csc34)CC2)n1 [Example 12] | < 100
14 | CC(C)c1noc(C2CCN(c3ncnc4c(-c5ccc(S(C)(=O)=O)c(F)c5)csc34)CC2)n1 [Example 13] | > 1000
15 | CC(C)c1noc(C2CCN(c3ncnc4c(-c5ccc([N+](=O)[O-])cc5)csc34)CC2)n1 [Example 14, 4-[4-(3-isopropyl-[1,2,4]oxadiazol-5-yl)-piperidin-1-yl]-7-(4-nitro-phenyl)-thieno[3,2-d]pyrimidine] | > 1000
16 | CC(C)c1noc(C2CCN(c3ncnc4c(-c5ccc(C(=O)O)cc5)csc34)CC2)n1 [Example 15, 4-{4-[4-(3-isopropyl-[1,2,4]oxadiazol-5-yl)-piperidin-1-yl]-thieno[3,2-d]pyrimidin-7-yl}-benzoic acid] | 100 to 1000

Further lines, results first:

Row | EC50 [nM] | Compound
17 | 100 to 1000 | COC(=O)c1ccc(-c2csc3c(N4CCC(c5nc(C(C)C)no5)CC4)ncnc23)cc1 [Example 16, 4-{4-[4-(3-isopropyl-[1,2,4]oxadiazol-5-yl)-piperidin-1-yl]-thieno[3,2-d]pyrimidin-7-yl}-benzoic acid methyl ester]
18 | < 100 | CC(C)(C)c1noc(C2CCN(c3ncnc4c(-c5ccc(S(C)(=O)=O)cc5F)csc34)CC2)n1 [Example 17, 4-[4-(3-tert-butyl-[1,2,4]oxadiazol-5-yl)-piperidin-1-yl]-7-(2-fluoro-4-methanesulfonyl-phenyl)-thieno[3,2-d]pyrimidine]
19 | < 100 | CS(=O)(=O)c1ccc(-c2csc3c(N4CCC(c5nc(C6CC6)no5)CC4)ncnc23)c(F)c1 [Example 18, 4-[4-(3-cyclopropyl-[1,2,4]oxadiazol-5-yl)-piperidin-1-yl]-7-(2-fluoro-4-methanesulfonyl-phenyl)-thieno[3,2-d]pyrimidine]
20 | < 100 | CS(=O)(=O)c1ccc(-c2csc3c(N4CCC(c5nc(C6CCCC6)no5)CC4)ncnc23)c(F)c1 [Example 19, 4-[4-(3-cyclopentyl-[1,2,4]oxadiazol-5-yl)-piperidin-1-yl]-7-(2-fluoro-4-methanesulfonyl-phenyl)-thieno[3,2-d]pyrimidine]
21 | < 100 | CCCS(=O)(=O)c1ccc(-c2csc3c(N4CCC(c5nc(C(C)C)no5)CC4)ncnc23)cc1 [Example 20, 4-[4-(3-isopropyl-[1,2,4]oxadiazol-5-yl)-piperidin-1-yl]-7-(4-(propylsulfonyl)phenyl)-thieno[3,2-d]pyrimidine]
22 | < 100 | CC(C)c1noc(C2CCN(c3ncnc4c(-c5ccc(S(=O)(=O)C6CC6)cc5)csc34)CC2)n1 [Example 21, 7-(4-(cyclopropylsulfonyl)phenyl)-4-[4-(3-isopropyl-[1,2,4]oxadiazol-5-yl)-piperidin-1-yl]-thieno[3,2-d]pyrimidine]
23 | < 100 | CC(C)c1noc(C2CCN(c3ncnc4c(-c5ccc(S(=O)(=O)C(C)C)cc5)csc34)CC2)n1 [Example 22, 4-[4-(3-isopropyl-[1,2,4]oxadiazol-5-yl)-piperidin-1-yl]-7-(4-(isopropylsulfonyl)phenyl)-thieno[3,2-d]pyrimidine]
24 | < 100 | CC(C)c1noc(C2CCN(c3ncnc4c(-c5ccc(S(=O)(=O)C6CCCC6)cc5)csc34)CC2)n1 [Example 23, 7-(4-(cyclopentylsulfonyl)phenyl)-4-[4-(3-isopropyl-[1,2,4]oxadiazol-5-yl)-piperidin-1-yl]-thieno[3,2-d]pyrimidine]
25 | < 100 | CCCS(=O)(=O)c1ccc(-c2csc3c(N4CCC(c5nc(C(C)C)no5)CC4)ncnc23)c(F)c1 [Example 24, 7-4-(2-fluoro-(4-propylsulfonyl)phenyl)-4-[4-(3-isopropyl-[1,2,4]oxadiazol-5-yl)-piperidin-1-yl]-thieno[3,2-d]pyrimidine]
26 | < 100 | Cn1cc(-c2ccc(S(C)(=O)=O)cc2)c2ncnc(OC3CCN(C(=O)OC(C)(C)C)CC3)c21 [Example 25, tert-butyl 4-(5-methyl-7-(4-methanesulfonyl-phenyl)-5H-pyrrolo[3,2-d]pyrimidin-4-yloxy)piperidine-1-carboxylate]
27 | > 1000 | Cn1cc(-c2ccc(S(C)(=O)=O)cc2)c2ncnc(OC3CCNCC3)c21 [Example 26, 5-methyl-7-(4-methanesulfonyl-phenyl)-4-(piperidin-4-yloxy)-5H-pyrrolo[3,2-d]pyrimidine]
28 | < 100 | CCc1cnc(N2CCC(Oc3ncnc4c(-c5ccc(S(C)(=O)=O)cc5)cn(C)c34)CC2)nc1 [Example 27, 4-(1-(5-ethylpyrimidin-2-yl)piperidin-4-yloxy)-5-methyl-7-(4-methanesulfonyl-phenyl)-5H-pyrrolo[3,2-d]pyrimidine]
29 | < 100 | Cn1cc(-c2ccc(S(C)(=O)=O)cc2)c2ncnc(OC3CCN(c4ncc(C(F)(F)F)cn4)CC3)c21 [Example 28, 5-methyl-7-(4-methanesulfonyl-phenyl)-4-(1-(5-(trifluoromethyl)pyrimidin-2-yl)piperidin-4-yloxy)-5H-pyrrolo[3,2-d]pyrimidine]
